In patent US8729102B2, “Bicyclic compound” (Takeda Pharmaceutical Company Limited, priority 2010, dated 2014):

molecular target: T1, Human ACC2 (ACC2 (Nd), N terminal deleted) (Homo sapiens, UniProt O00763); assay: Measurement of ACC2 inhibitory activity (malachite green, recombinant ACC2 (Nd)); format: biochemical; conditions: 10 μM test compound; 20 min preincubation at 30° C., 20 min reaction; 10 µM
T1 construct: made in house; host or cells: SF-9 insect cells (baculovirus)
Experimental: The ACC2 inhibitory action of the compound of the present invention was evaluated by the following method.
(1) Cloning of Human ACC2 Gene and Preparation of Recombinant Baculovirus
Human ACC2 gene was cloned by PCR using a human skeletal muscle cDNA library (Clontech) as a template and Primer 1 and Primer 2 shown below. Primer 1 and Primer 2 were prepared by adding SalI, XbaI restriction enzyme recognition sequences based on the information of the base sequence of human ACC2 gene (Genbank Accession U89344).
(§1) PCR was performed using Pyrobest DNA polymerase (TAKARA BIO INC.). The obtained PCR product was cloned to pT7 Blue vector (Novagen) and after confirmation of the base sequence, digested with restriction enzymes SalI and XbaI. The obtained DNA fragment was inserted into pFAST-BacHTa (Invitrogen) digested with restriction enzymes Sail and XbaI to give expression plasmid ACC2/pFAST-BacHTa.
A plasmid for expression of ACC2 without a mitochondrial targeting sequence was prepared by PCR using the expression plasmid as a template, and Primer 3 (salI restriction enzyme recognition sequence was added) and Primer 4, which are prepared by reference to the information of human ACC2 gene base sequence (Genbank Accession U89344).
as §1, with “Pyrobest-DNA” for “Pyrobest DNA”, “Aflil.” for “XbaI.”, “ACC2/pFAST-BacHTa” for “pFAST-BacHTa (Invitrogen)”, “SalI” for “Sail”, “AfilI” for “XbaI”, “ACC2mito7/pFAST-BacHTa.” for “ACC2/pFAST-BacHTa.”
Using the expression plasmid ACC2mito7/pFAST-BacHTa and BAC-TO-BAC Baculovirus Expression System (Invitrogen), virus stock BAC-ACC2 of recombinant Baculovirus (N terminal deleted (hereinafter Nd)) was prepared.
(2) Preparation of ACC2 (Nd) Protein
SF-9 cells (Invitrogen) were inoculated to a medium (2 L) for insect cells (Sf-900IISFM medium (Invitrogen) containing 10% fetal bovine serum (Trace), 50 mg/L Gentamicin (Invitrogen), 0.1% Pluronic F-68 (Invitrogen)) at 0.5×10^6 cells/mL, and cultured with shaking in Wave Bioreactor (Wave) at 27° C., 20 rpm, rocking angle 6°, oxygen concentration 30%.
On day 4 of the culture, 3 L of the medium for insect cells was added, the rocking angle was set to 8°, and the cells were further cultured. On day 5 of the culture, 100 mL of recombinant Baculovirus BAC-ACC2 (Nd) was added, 5 L of the medium for insect cells was further added, the rocking angle was set to 11°, and the cells were cultured for 3 days. The culture medium was centrifuged at 1000×g for 10 min to give virus-infected cells. The cells were washed with phosphate buffered saline (Invitrogen) and centrifuged under the same conditions. The obtained cells were cryopreserved at −80° C.
The cryopreserved cells were thawed in ice and suspended in 900 mL of 25 mM HEPES buffer (pH 7.5) containing 10% Glycerol, 0.13 M NaCl, 1 mM EDTA, 25 mM Sodium β-Glycerophosphate and 1 mM Sodium Orthovanadate, and supplemented with Complete Protease Inhibitor (Nippon Boehringer Ingelheim Co., Ltd.). The obtained suspension was homogenized three times in a polytron homogenizer (Kinematica) at 20,000 rpm for 30 sec. The obtained cell disruption solution was clarified by centrifugation at 31000×g for 60 min, and filtered through a 0.45 μm filter. The filtrate was passed through a column packed with 60 mL of Ni-NTA Super Flow Gel (QUIAGEN) at a flow rate of about 5 mL/min. The column was washed with buffer A (50 mM HEPES (pH 7.5) containing 0.3 M NaCl), further washed with buffer A containing 20 mM Imidazole, and eluted with buffer A containing 100 mM Imidazole. The eluate was concentrated with Vivaspin 20 (Vivascience) with a molecular weight cut off of 30K. The obtained concentrate was dialyzed against 50 mM HEPES (pH 7.5) containing 10 mM MgCl2, 2 mM Dithiothreitol, 10 mM Tripotassium Citrate and 0.3 M NaCl. […]

T1 sequence (O00763 117-2458 limits assumed, stated change not applied): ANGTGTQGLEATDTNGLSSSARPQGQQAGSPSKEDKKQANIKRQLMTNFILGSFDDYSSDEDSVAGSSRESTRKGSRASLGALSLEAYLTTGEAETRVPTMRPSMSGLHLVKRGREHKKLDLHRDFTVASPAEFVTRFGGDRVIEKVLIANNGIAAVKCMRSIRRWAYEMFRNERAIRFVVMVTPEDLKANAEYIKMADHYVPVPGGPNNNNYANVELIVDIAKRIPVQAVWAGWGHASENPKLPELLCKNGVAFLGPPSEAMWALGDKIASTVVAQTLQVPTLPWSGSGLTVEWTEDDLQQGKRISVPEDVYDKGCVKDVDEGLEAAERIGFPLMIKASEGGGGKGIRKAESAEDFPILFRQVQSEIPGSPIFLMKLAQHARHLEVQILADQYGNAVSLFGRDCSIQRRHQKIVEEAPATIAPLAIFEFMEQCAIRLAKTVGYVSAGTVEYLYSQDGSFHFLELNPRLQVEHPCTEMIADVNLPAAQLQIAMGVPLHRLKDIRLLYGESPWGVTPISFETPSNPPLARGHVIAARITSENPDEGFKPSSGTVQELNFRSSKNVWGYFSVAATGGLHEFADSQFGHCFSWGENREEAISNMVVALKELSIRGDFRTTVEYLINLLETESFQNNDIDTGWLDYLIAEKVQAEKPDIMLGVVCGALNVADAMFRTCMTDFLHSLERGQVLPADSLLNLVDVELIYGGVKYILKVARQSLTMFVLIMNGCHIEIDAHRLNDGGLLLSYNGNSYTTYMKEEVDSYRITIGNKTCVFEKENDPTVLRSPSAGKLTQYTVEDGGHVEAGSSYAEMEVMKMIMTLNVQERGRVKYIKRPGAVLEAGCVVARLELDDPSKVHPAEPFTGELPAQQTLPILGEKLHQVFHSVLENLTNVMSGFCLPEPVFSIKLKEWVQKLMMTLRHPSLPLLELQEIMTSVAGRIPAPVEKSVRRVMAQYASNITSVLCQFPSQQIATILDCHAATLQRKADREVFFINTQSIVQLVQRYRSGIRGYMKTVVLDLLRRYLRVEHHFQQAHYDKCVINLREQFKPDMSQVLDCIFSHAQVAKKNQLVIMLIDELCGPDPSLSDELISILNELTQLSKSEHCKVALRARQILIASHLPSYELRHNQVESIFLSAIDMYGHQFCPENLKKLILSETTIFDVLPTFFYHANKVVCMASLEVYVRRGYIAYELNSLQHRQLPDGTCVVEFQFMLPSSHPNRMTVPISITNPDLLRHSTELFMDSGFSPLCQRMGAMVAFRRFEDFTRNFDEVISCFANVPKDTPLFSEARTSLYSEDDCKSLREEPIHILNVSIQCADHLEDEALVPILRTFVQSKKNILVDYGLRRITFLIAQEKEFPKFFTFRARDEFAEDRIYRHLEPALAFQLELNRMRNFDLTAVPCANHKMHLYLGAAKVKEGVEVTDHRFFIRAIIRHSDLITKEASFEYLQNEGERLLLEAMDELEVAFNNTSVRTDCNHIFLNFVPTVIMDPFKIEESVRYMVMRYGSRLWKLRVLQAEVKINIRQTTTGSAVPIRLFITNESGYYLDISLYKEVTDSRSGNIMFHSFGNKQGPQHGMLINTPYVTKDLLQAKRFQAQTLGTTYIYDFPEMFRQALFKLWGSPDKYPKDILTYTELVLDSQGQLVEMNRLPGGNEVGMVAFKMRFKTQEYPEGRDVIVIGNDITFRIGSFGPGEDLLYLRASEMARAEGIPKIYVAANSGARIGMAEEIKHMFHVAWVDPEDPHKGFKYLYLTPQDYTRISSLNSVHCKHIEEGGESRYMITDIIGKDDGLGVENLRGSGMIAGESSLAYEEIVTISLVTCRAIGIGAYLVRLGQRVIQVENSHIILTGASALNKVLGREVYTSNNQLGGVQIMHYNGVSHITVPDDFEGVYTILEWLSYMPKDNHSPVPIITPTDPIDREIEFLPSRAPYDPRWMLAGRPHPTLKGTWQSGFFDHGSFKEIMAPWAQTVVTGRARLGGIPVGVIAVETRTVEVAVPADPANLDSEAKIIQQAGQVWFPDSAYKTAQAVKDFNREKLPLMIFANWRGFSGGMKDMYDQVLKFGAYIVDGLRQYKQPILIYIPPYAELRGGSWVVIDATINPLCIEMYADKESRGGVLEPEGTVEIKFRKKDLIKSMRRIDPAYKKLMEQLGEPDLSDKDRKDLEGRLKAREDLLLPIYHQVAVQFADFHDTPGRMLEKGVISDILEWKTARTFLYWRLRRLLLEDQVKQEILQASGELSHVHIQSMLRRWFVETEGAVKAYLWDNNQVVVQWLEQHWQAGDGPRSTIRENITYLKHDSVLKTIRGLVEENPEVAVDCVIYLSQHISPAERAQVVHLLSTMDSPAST

First: CC(=O)N[C@@H](C)COc1cnc(-c2nc3ccc(OCC4CC4(F)F)cc3o2)c(F)c1 (stereo partly drawn) [Example 110, Diastereomer of N-{(1S)-2-[(6-{6-[(2,2-difluorocyclopropyl)methoxy]-1,3-benzoxazol-2-yl}-5-fluoropyridin-3-yl)oxy]-1-methylethyl}acetamide (retention time: long)]
Second: C[C@@H](COc1cnc(-c2nc3ccc(OCC4CC4(F)F)cc3o2)c(F)c1)NC(N)=O (stereo partly drawn) [Example 111, Diastereomer of 1-{(1S)-2-[(6-{6-[(2,2-difluorocyclopropyl)methoxy]-1,3-benzoxazol-2-yl}-5-fluoropyridin-3-yl)oxy]-1-methylethyl}urea (retention time: short)]
The “ACC2 inhibitory rate at 10 μM (%)” value of the first is lower: 91% for the first, 100% for the second.

same assay, conditions: 10 μM test compound; 20 min preincubation at 30° C., 20 min reaction; read-out: ACC2 inhibitory rate at 10 μM (%)

First: CC(=O)N[C@@H](C)COc1ccc(-c2nc3ccc(OCC4CC4)cc3o2)cc1 [Example 3, N-[(1S)-2-{4-[6-(cyclopropylmethoxy)-1,3-benzoxazol-2-yl]phenoxy}-1-methylethyl]acetamide]
Second: CC(=O)N[C@@H](C)COc1ccc(-n2cc3cc(OCC4CC4)ccc3n2)cc1 [Example 12, N-[(1S)-2-{4-[5-(cyclopropylmethoxy)-2H-indazol-2-yl]phenoxy}-1-methylethyl]acetamide]
The inhibition at 10 µM of the first is lower: 99% for the first, 103% for the second.

Going from `CC(=O)N[C@@H](C)COc1n[nH]c(-c2nc3ccc(OCC4CC4)cc3o2)c1F` [Example 9, N-[(1S)-2-({5-[6-(cyclopropylmethoxy)-1,3-benzoxazol-2-yl]-4-fluoro-1H-pyrazol-3-yl}oxy)-1-methylethyl]acetamide] to `C[C@@H](COc1ccc(-c2nc3ccc(OCC4CC4)cc3o2)nc1)NC(N)=O` [Example 15, 1-[(1S)-2-({6-[6-(cyclopropylmethoxy)-1,3-benzoxazol-2-yl]pyridin-3-yl}oxy)-1-methylethyl]urea], the inhibition at 10 µM falls from 98% to 92%.

Compared with `CC(=O)N[C@@H](C)COc1ccc(-n2cc3ccc(OCC4CC4)cc3n2)cc1` [Example 13, N-[(1S)-2-{4-[6-(cyclopropylmethoxy)-2H-indazol-2-yl]phenoxy}-1-methylethyl]acetamide], `C[C@@H](COc1ccc(-n2cc3ccc(OCC4CC4)cc3n2)cc1)NC(=O)N(C)C` [Example 63, 3-[(1S)-2-{4-[6-(cyclopropylmethoxy)-2H-indazol-2-yl]phenoxy}-1-methylethyl]-1,1-dimethylurea] is lower in inhibition at 10 µM: 94% for the first, 93% for the second.

Compared with `CNC(=O)N[C@@H](C)COc1ccc(-c2nc3ccc(OCC4CC4)cc3o2)nc1` [Example 16, 1-[(1S)-2-({6-[6-(cyclopropylmethoxy)-1,3-benzoxazol-2-yl]pyridin-3-yl}oxy)-1-methylethyl]-3-methylurea], `COC(=O)N[C@@H](C)COc1ccc(-c2nc3ccc(OCC4CC4)cc3o2)nc1` [Example 17, methyl [(1S)-2-({6-[6-(cyclopropylmethoxy)-1,3-benzoxazol-2-yl]pyridin-3-yl}oxy)-1-methylethyl]carbamate] is lower in inhibition at 10 µM: 93% for the first, 90% for the second.

Going from `CC(=O)N[C@@H](C)COc1ccc(C2Cc3ccc(OCC4CC4)cc3O2)nc1` (stereo partly drawn) [Example 24, N-[(1S)-2-({6-[6-(cyclopropylmethoxy)-2,3-dihydro-1-benzofuran-2-yl]pyridin-3-yl}oxy)-1-methylethyl]acetamide] to `CC(=O)N[C@@H](C)COc1ccc(-c2cc3ccc(OCC4CC4)cn3n2)c(F)c1` [Example 104, N-[(1S)-2-{4-[6-(cyclopropylmethoxy)pyrazolo[1,5-a]pyridin-2-yl]-3-fluorophenoxy}-1-methylethyl]acetamide], the inhibition at 10 µM rises from 90% to 102%.

Compared with `CCOc1ccc2cn(-c3ccc(OC[C@H](C)NC(C)=O)cc3F)nc2c1` [Example 25, N-{(1S)-2-[4-(6-ethoxy-2H-indazol-2-yl)-3-fluorophenoxy]-1-methylethyl}acetamide monohydrate], `CCOc1ccc2cn(-c3ccc(OC[C@H](C)NC(C)=O)cc3)nc2c1` [Example 26, N-{(1S)-2-[4-(6-ethoxy-2H-indazol-2-yl)phenoxy]-1-methylethyl}acetamide] is higher in inhibition at 10 µM: 90% for the first, 95% for the second.

First: CC(=O)N[C@@H](C)COc1ccc(-c2nc3ccc(OCC(C)(F)F)cc3o2)nc1 [Example 30]
Second: CC(=O)N[C@@H](C)COc1cnc(-c2nc3ccc(OCC4CC4(F)F)cc3o2)c(F)c1 (stereo partly drawn) [Example 109, Diastereomer of N-{(1S)-2-[(6-{6-[(2,2-difluorocyclopropyl)methoxy]-1,3-benzoxazol-2-yl}-5-fluoropyridin-3-yl)oxy]-1-methylethyl}acetamide (retention time: short)]
The inhibition at 10 µM of the first is higher: 100% for the first, 95% for the second.

First: CC(=O)N[C@@H](C)COc1cc(-c2nc3cc(OC(C)C)ccc3o2)on1 [Example 33, N-[(1S)-1-methyl-2-({5-[5-(1-methylethoxy)-1,3-benzoxazol-2-yl]isoxazol-3-yl}oxy)ethyl]acetamide]
Second: C[C@@H](COc1cnc(-c2nc3ccc(OCC4CC4(F)F)cc3o2)c(F)c1)NC(N)=O (some centres unmarked) [Example 97]
The inhibition at 10 µM of the first is lower: 85% for the first, 95% for the second.

Compared with `CC(=O)N[C@@H](C)COc1cc(F)c(-n2cc3ccc(OCC4CC4)cc3n2)cc1F` [Example 70, N-[(1S)-2-{4-[6-(cyclopropylmethoxy)-2H-indazol-2-yl]-2,5-difluorophenoxy}-1-methylethyl]acetamide], `CC(=O)N[C@@H](C)COc1ccc(-c2nn3cc(OCC4CC4)ccc3c2F)c(F)c1` [Example 102, N-[(1S)-2-{4-[6-(cyclopropylmethoxy)-3-fluoropyrazolo[1,5-a]pyridin-2-yl]-3-fluorophenoxy}-1-methylethyl]acetamide] is higher in inhibition at 10 µM: 93% for the first, 99% for the second.

First: CC(=O)N[C@@H](C)COc1ccc(-n2nc3cc(OCC4CC4)ccc3c2F)cc1 [Example 73, N-[(1S)-2-{4-[6-(cyclopropylmethoxy)-3-fluoro-2H-indazol-2-yl]phenoxy}-1-methylethyl]acetamide]
Second: CC(=O)N[C@@H](C)COc1ccc(-c2nc3ccc(OCC4CC4)cn3c2F)cc1 [Example 92, N-[(1S)-2-{4-[6-(cyclopropylmethoxy)-3-fluoroimidazo[1,2-a]pyridin-2-yl]phenoxy}-1-methylethyl]acetamide]
The inhibition at 10 µM of the first is higher: 99% for the first, 93% for the second.

First: CCOc1ccc2cc(-c3ccc(OC[C@H](C)NC(C)=O)cc3)nn2c1 [Example 85, N-{(1S)-2-[4-(6-ethoxypyrazolo[1,5-a]pyridin-2-yl)phenoxy]-1-methylethyl}acetamide]
Second: CC(=O)N[C@@H](C)COc1ccc(-c2nc3ccc(OCC4CC4)cn3n2)cc1 [Example 89, N-[(1S)-2-{4-[6-(cyclopropylmethoxy)[1,2,4]triazolo[1,5-a]pyridin-2-yl]phenoxy}-1-methylethyl]acetamide]
The inhibition at 10 µM of the first is lower: 93% for the first, 94% for the second.

First: CC(=O)N[C@@H](C)COc1ccc(-c2nc3cc(OCC4CC4)ccn3n2)cc1 [Example 95, N-[(1S)-2-{4-[7-(cyclopropylmethoxy) [1,2,4]triazolo[1,5-a]pyridin-2-yl]phenoxy}-1-methylethyl]acetamide]
Second: CCOc1ccc2c(F)c(-c3ccc(OC[C@H](C)NC(C)=O)cc3F)nn2c1 [Example 100, N-{(1S)-2-[4-(6-ethoxy-3-fluoropyrazolo[1,5-a]pyridin-2-yl)-3-fluorophenoxy]-1-methylethyl}acetamide]
The inhibition at 10 µM of the first is higher: 94% for the first, 90% for the second.
